These results are taken from US8222230B2, “Pharmaceutical compositions with superior product performance and patient compliance” (Hoffmann-La Roche Inc., priority 2009, dated 2012).

One series is described as follows: pKa of compound 1. Type of series: physicochemical. Particulars: weak base. From the text:
(§1) Compound 1 is being evaluated in the clinic for the treatment of liver infection caused by hepatitis C virus. The estimated daily dose is 1 g-2 g requiring high drug loading in the drug product to provide the best treatment regimen for the patients. […] The high dose and need for an immediate release profile are further complicated by the low bulk density of the drug substance (0.04 to 0.3 g/cc). The conventional manufacturing technologies employing commonly used excipients require the use of multiple densification steps as well as high amounts of excipients such as binders. In addition to the multi-step manufacturing process, the high usage of binder has a negative impact on the dissolution of the product resulting in lower bioavailability.

Series [1] can be described thus: pH solubility profile of compound 1 at room temperature (FIG. 1). It counts as physicochemical. The note with it: pH>4, FIG. 1.
From the text: as §1
FIG. 1 provides a graph illustrating the pH solubility profile of compound 1 at room temperature.

Take `CC(C)C(=O)OC[C@H]1O[C@@H](n2ccc(N)nc2=O)[C@](C)(F)[C@@H]1OC(=O)C(C)C` [Compound 1, Isobutyric acid (2R,3R,4R,5R)-5-(4-amino-2-oxo-2H-pyrimidin-1-yl)-4-fluoro-2-isobutyryloxymethyl-4-methyl-tetrahydro-furan-3-yl ester]: the pKa in “pKa of compound 1” was 3.5. In addition, in series [1], the “drug solubility vs pH” value was “drops precipitously”.
